One assay deals with T1, c-Myc-Max heterodimers (Homo sapiens, UniProt P01106).
T1 construct: c-Myc bHLH-ZIP domain (residues 353-437); His6-TEV protease substrate tag; made in house; host or cells: bacteria (pET151 vector for Myc)
Nature of the assay: Electrophoretic mobility shift assay (EMSA) of c-Myc-Max dimerization and DNA binding. As to the method:
The ability of a small-molecule to interfere with c-Myc-Max dimerization is conveniently assessed through the disruption of the c-Myc-Max/DNA ternary complex by an electrophoretic mobility shift assay (EMSA) using fluorescently-labelled DNA, and subsequently quantified by densitometry.(23) Accordingly, a 100-member library was screened for the ability to disrupt the c-Myc-Max dimer.
These were performed essentially as described previously (23). Briefly, Ni^+-agarose-purified His6-tagged c-Myc bHLH-ZIP domain (residues 353-437) was used for all binding assays as was the His6-tagged 151 residue isoform of Max, otherwise referred to as Max(S) (residues 2-151) (21). For each binding reaction, the proteins were allowed to heterodimerize at a concentration of 30 nM each in the presence of 20 nM of a 5′-HEX-tagged double-stranded 22-base pair oligonucleotide 5′-hexachlorofluoresceine-[…]-3′ (SEQ ID NO: 1) containing a consensus c-Myc binding site (CACGTG) and the indicated concentration of small molecule inhibitor. Control reactions contained the same oligonucleotide in the presence of 60 nM of the 160 residue isoform of Max referred to as Max(L) (21). All binding reactions were prepared in a buffer consisting of PBS (pH 7.3), 1 mmol/L EDTA, 0.1% NP40, 5% glycerol, 1 mmol/L DTT, and 0.4 mg/mL bovine serum albumin. Electrophoresis was performed on 8% polyacrylamide/bisacrylamide (80:1) gels in […] (23). Each reaction was run on at least three separate occasions.
EMSAs were performed essentially as described utilizing bacterially-expressed recombinant proteins purified nearly to homogeneity.(23) Experiments with Max homodimers used the His6-tagged 160 amino acid isoform of the protein, termed Max(L), which homodimerizes and binds DNA well. For studies with Myc-Max heterodimers, the His6-tagged 151 residue isoform of Max [Max(S)] was used, which binds DNA well as a heterodimer with Myc but poorly as a homodimer.(23) Recombinant Myc protein, expressed in the pET151 vector, consisted of the His6-TEV protease substrate-tagged 85 amino acid bHLH-ZIP domain. (23) Each protein was purified by Ni-agarose affinity chromatography as previously described. (23) The His6-TEV tag was removed from the Myc protein by TEV protease cleavage followed by re-purification using Ni-agarose affinity chromatography to remove the His6-TEV protease and the cleaved His6-TEV tag as previously described. Binding assays were performed with 30 nM of each protein and 30 nM of a 6-carboxy-2′,4,4′,5′,7,7′-hexachlorofluorescein (HEX)-tagged double-stranded oligonucleotide containing a consensus Myc binding site (IDT, Coralville, Iowa).(23)
(In general: A gel shift assay detects complexes by their altered migration in electrophoresis.)

For a further assay, the target named is T2, Max-Max homodimers (Homo sapiens, UniProt P61244).
T2 construct: His6; made in house; host or cells: bacteria
Nature of the assay: EMSA of Max-Max homodimerization and DNA binding. The note with it: 50% inhibition of Max-Max dimerization and DNA binding in EMSAs.

Assay [1] deals with HL60 cells. The assay is described as follows: Growth inhibition (MTT assay) in HL60 cells. It is filed as cell-based, human. The note with it: 10-point serial dilution, quadruplicate; for IC50: read-out: IC50 HL60. As to the method:
(§1) These were performed using HL60 human promyelocytic leukemia cells or Daudi Burkitt lymphoma cells essentially as described previously (23). Briefly, cells were seeded into 96 well dishes (5000 cells/well and 10,000 cells/well for HL60 and Daudi cells, respectively). Growth medium consisted of RPMI medium supplemented with Penicillin/Streptomycin, glutamine and 10% fetal bovine serum. The indicated concentrations of each compound were then added and 10-point growth inhibition assays were performed 3-5 days later using the MTT assay. Each point was performed in quadruplicate.
(§2) Daudi Burkitt lymphoma and HL60 promyelocytic leukemia cells were maintained in RPMI medium supplemented with 10% fetal bovine serum.(23) For growth inhibition studies, 3×10^3 cells were seeded in 96 well plates in the presence of serial dilutions of each compound. A total of 10 dilutions, ranging from 0.1 to 50 μM were performed for each compound. Standard MTT assays (23) were used to quantify cell number 3-4 days later and compared to wells exposed to DMSO vehicle only.
Background: Tetrazolium assays rely on reduction of a dye to a coloured formazan, in cell work by metabolically active cells.

A further assay has as its system Daudi cells. Nature of the assay: Growth inhibition (MTT assay) in Daudi cells. Format: cell-based. The following applies: 10-point serial dilution, quadruplicate; for IC50: read-out: IC50 Daudi. As to the method:
as §1, §2

For another assay, the target named is T3, c-Myc-Max dimerization (Homo sapiens, UniProt P01106).
T3 construct: endogenous in cells; host or cells: HL60
Nature of the assay: Co-immunoprecipitation (Co-IP) of c-Myc with Max in HL60 cells. It is filed as cell-based. As to the method:
Co-IP assays were performed essentially as described previously.(23) Briefly, 5×10^6 HL60 cells (>90% viable) in log-phase growth were treated in suspension for 4-6 h with the stated concentration of 3jc48-3. As a negative control, samples exposed to DMSO vehicle only were included and processed in parallel. Treated cells were collected by centrifugation, washed twice in ice-cold PBS and lysed in IP Buffer. 300 μg of cleared lysate was then precipitated with a 1:200 dilution of anti-Max antibody(23) followed by subsequent precipitation with protein G-Sepharose using conditions recommended by the supplier (Santa Cruz Biotechnology, Inc. Santa Cruz, Calif.). The precipitate was washed three times in IP buffer, boiled in running buffer and resolved by 10% SDS-PAGE. After electrotransfer of the proteins to a PVDF membrane (Millipore Corp. Billercica, Mass.), the blot was probed with a 1:1000 dilution of anti-Myc monoclonal antibody (9E10, Santa Cruz Biotechnology, Santa Cruz, Calif.). Blots were developed using a Pierce ECL Plus enhanced chemiluminescence kit according to the directions of the supplier (Thermo-Fisher, Pittsburgh, Pa.).

Assay [2] concerns HL60 cells. Nature of the assay: Cell cycle analysis (propidium iodide, flow cytometry). Format: cell-based. The note with it: 24 h. As to the method: Sub-confluent cultures of cells at >90% viability were plated into fresh medium at densities that were typically about 10% of those attained at the point of density arrest. The next day, Myc inhibitors at the stated concentrations were added for 24-48 hr. The cells were then harvested, washed twice in PBS and stained with propidium iodide as previously described(23). Cell cycle analyses were performed on a BD FACSCalibur™ flow cytometer (Becton Dickinson, Inc. Franklin Lakes, N.J.) and analyzed using ModFit LT 3.3 (Verity Software House, Topsham, Me.).

Assay [3] deals with c-Myc-responsive promoter. The assay is described as follows: Myc reporter gene expression (luciferase) in HeLa cells. The following applies: markedly diminished within 6 h of compound addition. It is filed as cell-based. The text has this:
The generic reporter vector pGL4.28(luc2CP/minP/Hygro) (Promega Corp., Madison Wis.), which is specifically designed to reduce anomalous transcription and which contains a highly de-stabilized luciferase reporter was used to assess the effects of Myc inhibitors. […] A control vector containing this same oligonucleotide with mutant E-box sites ([NT] ID NO: 3) was used as a negative control. […] After automated DNA sequencing to confirm the identity of its respective insert, each vector was then separately co-transfected into HeLa cells together with the vector pFR400, which encodes a mutant form of dihydrofolate reductase that facilitates the step-wise amplification of the plasmid and any co-transfected sequences in the presence of increasing concentrations of the folate antagonist methotrexate (MTX). After first selecting for stably transfected cells by growth in hygromycin, the resistant clones were pooled and grown in serial four-fold increasing concentrations of MTX ranging from […]), thus allowing the luciferase signal originating from the first vector to be easily detected above background. No luciferase signal over background values could be obtained in unamplified cells or in amplified cells transfected with the mutant E-box-containing vector. […]

We go through three compounds from patent publication US9242944B2 (UNIVERSITY OF MARYLAND, BALTIMORE, priority 2013, dated 2016).

SMILES strings stand for the structures. Entries after “also recorded” stand apart in the source; their conditions may differ. Read-outs that look alike come from different tables or passages of the source. Where only a bound is given, the exact number is not on record here.

T1 sequence (P01106 368-452, one chain of several): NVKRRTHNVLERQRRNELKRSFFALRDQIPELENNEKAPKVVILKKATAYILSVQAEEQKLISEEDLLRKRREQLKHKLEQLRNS
T3 sequence (P01106 16-454 limits assumed): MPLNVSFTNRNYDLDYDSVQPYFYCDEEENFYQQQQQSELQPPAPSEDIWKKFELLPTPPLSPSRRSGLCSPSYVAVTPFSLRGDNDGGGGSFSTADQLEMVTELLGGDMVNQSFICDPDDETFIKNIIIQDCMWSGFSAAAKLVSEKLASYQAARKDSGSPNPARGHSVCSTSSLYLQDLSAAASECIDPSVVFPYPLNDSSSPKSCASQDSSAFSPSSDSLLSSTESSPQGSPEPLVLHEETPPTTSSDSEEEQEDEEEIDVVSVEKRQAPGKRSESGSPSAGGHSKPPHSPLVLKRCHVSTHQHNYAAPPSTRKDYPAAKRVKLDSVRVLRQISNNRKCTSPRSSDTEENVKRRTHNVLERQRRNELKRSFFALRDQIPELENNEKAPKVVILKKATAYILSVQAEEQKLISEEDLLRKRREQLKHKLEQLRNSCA
T2 sequence (P61244 whole entry): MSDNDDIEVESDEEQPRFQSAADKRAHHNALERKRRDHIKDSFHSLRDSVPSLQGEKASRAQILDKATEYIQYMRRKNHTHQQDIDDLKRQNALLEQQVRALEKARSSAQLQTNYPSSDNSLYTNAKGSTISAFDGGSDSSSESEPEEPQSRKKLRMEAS

As a reminder, the IC50 is the concentration needed to halve the response being measured. A word on the inhibition: it is the percentage by which the read-out fell short of the control. In the case of `COC(=O)c1ccc(Nc2ccc([N+](=O)[O-])c3nonc23)c(-c2ccc(C)cc2)c1` [Compound 3jc48-3, Methyl 4′-methyl-6-((7-nitrobenzo[c][1,2,5]oxadiazol-4-yl)amino)-[1,1′-biphenyl]-3-carboxylate], the IC50 at c-Myc-Max heterodimers (50% inhibition of c-Myc-Max dimerization and DNA binding in EMSAs) was determined as 34.8 µM; at Max-Max homodimers, 60.6 µM; in the assay on HL60 cells [1] (Homo sapiens, HL-60, MTT assay) it was 3.8 µM; in the assay on HL60 cells [1] (MTT assay), 3.5 ± 0.54 µM; with Daudi cells it was 1.28 ± 0.73 µM; in the assay on Daudi cells (Homo sapiens, Daudi) it was 1.3 µM. Besides, the “c-Myc-Max inhibitory potency relative to 10074-G5” value at c-Myc-Max heterodimers (EMSA) is “approximately five-fold improvement”. In addition, at c-Myc-Max heterodimers (EMSA), the “selectivity for Myc-Max heterodimers over Max-Max homodimers” value is given as “about two-fold selective; also recorded: two-fold selectivity”. For the same compound, the inhibition at 100 µM at c-Myc-Max heterodimers (Table 10, 100 μM small-molecule, EMSA, read-out: % Inhibition of c-Myc-Max Dimerization) amounted to 94%. In the assay on HL60 cells [1] (MTT assay), the “IC50 HL60” value is “single-digit micromolar”. Besides, the “IC50 Daudi” value with Daudi cells is given as “single-digit micromolar”. Also, the “disruption of c-Myc-Max dimerization in cells (co-IP)” value (shortened to “disruption of c-Myc-Max dimerization”) at c-Myc-Max dimerization is on record as “capable of disrupting c-Myc-Max dimerization within cells”. Besides, the “cell cycle arrest, cells in G0/G1” value in the assay with HL60 cells [2] is reported as “blocking progression of the cell cycle beyond the G0/G1 phase; also recorded: dose-dependently increased the percentage of HL60 cells in the G0/G1 stage”. The “inhibition of luciferase reporter under c-Myc-responsive vs NF-κB-responsive promoter” value in assay [3] is on record as “selectively inhibits the expression of the luciferase gene under the control of a c-Myc promoter; also recorded: selectively inhibited the c-Myc-driven gene”.

In the case of `O=C(OCC(F)(F)F)c1ccc(Nc2ccc([N+](=O)[O-])c3nonc23)cc1` [Compound 3jc91-7, Trifluoroethyl 4-((7-nitrobenzo[c][1,2,5]oxadiazol-4-yl)amino)benzoate], the “disruption of c-Myc-Max dimerization” value on c-Myc-Max dimerization is recorded as “inhibit c-Myc-Max dimerization in cells”.

Turning to `O=C(Oc1ccccc1)c1ccc(Nc2ccc([N+](=O)[O-])c3nonc23)cc1` [SF-4-017, Phenyl 4-((7-nitrobenzo[c][1,2,5]oxadiazol-4-yl)amino)benzoate], the half-maximal inhibitory concentration (IC50) at c-Myc-Max heterodimers was 30 µM; on Max-Max homodimers it was > 50 µM; with HL60 cells [1] (Homo sapiens, HL-60, MTT assay), 9.2 ± 0.78 µM; with Daudi cells (Homo sapiens, Daudi) it was 2.5 ± 0.05 µM. Also, in the assay with HL60 cells [1] (MTT assay), the “IC50 HL60” value was “single-digit micromolar”. For the same compound, the “IC50 Daudi” value in the assay with Daudi cells was “single-digit micromolar”. The “disruption of c-Myc-Max dimerization” value on c-Myc-Max dimerization is recorded as “inhibit c-Myc-Max dimerization in cells”.
